Data from ChEMBL document CHEMBL1201862, “PubChem BioAssay data set” (2004).
Active and inactive are the calls of the source.

Columns and labels:
CAAX prenyl protease 2 = target: T1, CAAX prenyl protease 2 (Saccharomyces cerevisiae S288c, UniProt Q03530); experiment: yeast Rce1 CaaX protease inhibitors, dose response, biochemical, plate reader, dry powder retest (AID 588851)
T1 sequence (Q03530 whole entry): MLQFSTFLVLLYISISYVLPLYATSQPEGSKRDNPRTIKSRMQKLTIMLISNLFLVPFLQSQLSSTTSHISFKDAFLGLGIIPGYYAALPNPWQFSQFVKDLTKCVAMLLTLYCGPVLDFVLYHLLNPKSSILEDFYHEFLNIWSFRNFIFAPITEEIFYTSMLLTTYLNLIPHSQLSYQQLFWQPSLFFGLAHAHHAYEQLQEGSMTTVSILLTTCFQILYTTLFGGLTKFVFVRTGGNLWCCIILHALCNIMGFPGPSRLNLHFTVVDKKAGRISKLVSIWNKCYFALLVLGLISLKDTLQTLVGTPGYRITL

Caspase-3 = target: T2, Caspase-3 (Homo sapiens, UniProt P42574); experiment: caspase-3 inhibitors as off-family protease, SAR follow-up, selectivity assay for SENP protease inhibitor project, biochemical, luminescence, set 2 (AID 588599); assay type: functional
T2 sequence (P42574 whole entry): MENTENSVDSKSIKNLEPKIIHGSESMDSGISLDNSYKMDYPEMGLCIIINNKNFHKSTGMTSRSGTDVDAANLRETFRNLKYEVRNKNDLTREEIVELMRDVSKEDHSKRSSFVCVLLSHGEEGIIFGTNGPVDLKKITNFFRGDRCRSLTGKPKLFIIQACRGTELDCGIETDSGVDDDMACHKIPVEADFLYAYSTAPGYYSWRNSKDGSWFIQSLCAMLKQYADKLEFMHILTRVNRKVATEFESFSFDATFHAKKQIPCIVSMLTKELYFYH

[1] = target: T3, Sentrin-specific protease 8 (Homo sapiens, UniProt Q96LD8); experiment: SENP8 protease inhibitors, SAR follow-up, biochemical, luminescence, set 2 (AID 588601); assay type: functional
T3 sequence (Q96LD8 whole entry): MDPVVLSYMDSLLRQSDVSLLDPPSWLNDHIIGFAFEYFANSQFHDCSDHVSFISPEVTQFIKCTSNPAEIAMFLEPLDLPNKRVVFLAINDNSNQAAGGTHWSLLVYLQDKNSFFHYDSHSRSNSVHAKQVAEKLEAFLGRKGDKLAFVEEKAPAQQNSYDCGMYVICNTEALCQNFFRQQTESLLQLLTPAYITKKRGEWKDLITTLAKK

[2] = target: T4, Sentrin-specific protease 7 (Homo sapiens, UniProt Q9BQF6); experiment: SENP7 protease inhibitors, SAR follow-up, biochemical, luminescence, set 2 (AID 588600); assay type: functional
T4 sequence (Q9BQF6 whole entry): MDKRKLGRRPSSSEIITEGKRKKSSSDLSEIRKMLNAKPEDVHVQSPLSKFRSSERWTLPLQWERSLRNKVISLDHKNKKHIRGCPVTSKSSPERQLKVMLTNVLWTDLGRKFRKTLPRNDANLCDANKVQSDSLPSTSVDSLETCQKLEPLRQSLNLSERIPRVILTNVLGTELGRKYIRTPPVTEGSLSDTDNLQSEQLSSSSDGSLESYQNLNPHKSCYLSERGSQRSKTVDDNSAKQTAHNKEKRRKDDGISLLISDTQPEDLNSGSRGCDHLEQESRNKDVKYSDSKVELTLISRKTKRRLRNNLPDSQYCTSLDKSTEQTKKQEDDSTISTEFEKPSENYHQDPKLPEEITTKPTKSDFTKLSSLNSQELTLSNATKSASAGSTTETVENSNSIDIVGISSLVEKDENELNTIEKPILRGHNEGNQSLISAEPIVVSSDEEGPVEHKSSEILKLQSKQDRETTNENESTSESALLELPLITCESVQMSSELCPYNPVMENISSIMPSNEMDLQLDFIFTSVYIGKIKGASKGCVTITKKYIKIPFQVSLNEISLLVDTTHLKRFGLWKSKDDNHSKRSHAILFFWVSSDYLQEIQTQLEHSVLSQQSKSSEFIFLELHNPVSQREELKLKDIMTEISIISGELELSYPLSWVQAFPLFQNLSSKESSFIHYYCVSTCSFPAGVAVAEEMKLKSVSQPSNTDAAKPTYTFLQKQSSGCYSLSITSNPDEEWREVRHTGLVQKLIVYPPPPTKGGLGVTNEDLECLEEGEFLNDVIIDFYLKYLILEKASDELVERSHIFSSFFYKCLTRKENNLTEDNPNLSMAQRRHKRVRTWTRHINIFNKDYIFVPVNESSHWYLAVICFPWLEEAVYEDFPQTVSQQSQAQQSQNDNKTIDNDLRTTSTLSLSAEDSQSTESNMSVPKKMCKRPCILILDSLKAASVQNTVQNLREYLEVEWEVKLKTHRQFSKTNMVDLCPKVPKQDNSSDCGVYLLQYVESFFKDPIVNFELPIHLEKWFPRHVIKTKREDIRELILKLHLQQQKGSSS

[3] = target: T5, Sentrin-specific protease 6 (Homo sapiens, UniProt Q9GZR1); experiment: SENP6 protease inhibitors, SAR follow-up, biochemical, luminescence, set 2 (AID 588598); assay type: functional
T5 sequence (Q9GZR1 whole entry): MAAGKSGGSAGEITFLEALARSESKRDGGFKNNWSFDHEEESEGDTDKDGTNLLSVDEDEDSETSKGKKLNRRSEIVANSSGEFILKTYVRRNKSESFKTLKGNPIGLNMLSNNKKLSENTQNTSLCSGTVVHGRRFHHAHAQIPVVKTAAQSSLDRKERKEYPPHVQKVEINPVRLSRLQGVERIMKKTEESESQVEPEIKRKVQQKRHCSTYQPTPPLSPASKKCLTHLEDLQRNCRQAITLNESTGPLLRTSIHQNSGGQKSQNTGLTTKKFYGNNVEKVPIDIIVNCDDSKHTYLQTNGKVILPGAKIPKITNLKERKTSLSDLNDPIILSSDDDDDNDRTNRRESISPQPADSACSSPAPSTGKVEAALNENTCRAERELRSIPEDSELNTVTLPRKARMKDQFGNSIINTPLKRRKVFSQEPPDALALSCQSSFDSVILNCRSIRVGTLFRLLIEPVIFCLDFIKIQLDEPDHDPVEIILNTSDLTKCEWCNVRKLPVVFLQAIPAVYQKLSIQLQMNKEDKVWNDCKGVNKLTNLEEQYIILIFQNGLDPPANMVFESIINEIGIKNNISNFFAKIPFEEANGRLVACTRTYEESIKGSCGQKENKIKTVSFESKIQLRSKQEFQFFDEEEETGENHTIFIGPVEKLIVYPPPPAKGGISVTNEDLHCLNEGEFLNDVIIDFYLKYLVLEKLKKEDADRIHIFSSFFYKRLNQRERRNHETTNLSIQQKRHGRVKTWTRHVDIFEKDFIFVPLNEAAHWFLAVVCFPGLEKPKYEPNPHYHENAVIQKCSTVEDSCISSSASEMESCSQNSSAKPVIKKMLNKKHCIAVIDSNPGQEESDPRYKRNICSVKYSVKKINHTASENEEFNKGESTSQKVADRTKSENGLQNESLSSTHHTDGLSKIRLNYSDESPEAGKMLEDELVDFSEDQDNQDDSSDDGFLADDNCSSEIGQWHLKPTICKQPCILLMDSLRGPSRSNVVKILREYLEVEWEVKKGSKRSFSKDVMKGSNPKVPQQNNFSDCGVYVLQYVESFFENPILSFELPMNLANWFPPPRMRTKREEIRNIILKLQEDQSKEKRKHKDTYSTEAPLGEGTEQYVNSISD

CHO = experiment: cytotoxicity in TLR9-MyD88 CHO cells, dose response, cytotoxicity control for TLR9-MyD88 binding inhibitor project, cell-based, luminescence (AID 588339); assay type: functional, hamster; conditions: Cricetulus griseus;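 further: CHO cells stably coexpressing TLR9 and MyD88 fusions from primary screen; compound exposure lasted 48 hours before viability readout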
Beta Lactamase = Beta Lactamase (Pseudomonas aeruginosa, UniProt Q932Y6); experiment: beta-lactamase reporter inhibitor potency, dose response, artefact control for TLR9-MyD88 binding inhibitor project, BLA reporter cells, FRET fluorescence (AID 588341); assay type: cell-based;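 further: cell based assay in CHO-K1 cells stably expressing beta-lactamase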
[4] = target: T3, Sentrin-specific protease 8; assay type: functional
[5] = target: T3, Sentrin-specific protease 8; assay type: functional; remark: listed apart in the source

Sequence of Beta Lactamase (Q932Y6 whole entry): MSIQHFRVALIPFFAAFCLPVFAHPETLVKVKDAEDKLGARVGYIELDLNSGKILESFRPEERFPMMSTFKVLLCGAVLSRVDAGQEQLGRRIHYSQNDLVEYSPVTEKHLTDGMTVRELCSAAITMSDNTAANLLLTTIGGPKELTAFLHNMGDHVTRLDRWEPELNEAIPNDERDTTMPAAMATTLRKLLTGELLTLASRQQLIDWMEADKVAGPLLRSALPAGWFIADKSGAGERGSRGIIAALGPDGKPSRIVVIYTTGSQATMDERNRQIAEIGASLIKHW

With `CCCOc1ccc(-c2c(C(=O)N/N=C/c3cccs3)nnn2-c2nonc2N)cc1` the AC50 (CAAX prenyl protease 2) was 54.9 µM (active).

With `CC(C)(C)C(=O)N1CCC(C(=O)Nc2nc3c(F)cc(F)cc3s2)CC1` the IC50 (Caspase-3) was > 99 µM (inactive), the IC50 [1] was > 99 µM (inactive) and the IC50 [2] was > 99 µM (inactive). For the same compound, the IC50 [3] was > 99 µM (inactive).

In the case of `Cc1ccc(N2C(=O)Cc3ccccc3C2=O)cc1`, the IC50 (CHO) is reported as > 49.8 µM (inactive), the IC50 (Beta Lactamase) is reported as 4.59 µM (active) and the IC50 [4] is reported as > 100 µM (inactive). For the same compound, the IC50 [5] was 3.36 µM (active).
